Target: T1, HCV NS3 helicase NS3h_1b(con1) (Hepatitis C virus genotype 1b, UniProt Q9WMX2)
T1 construct: truncated C-terminally His-tagged NS3 proteins lacking the N-terminal protease, called NS3h; His-tag (C); made in house
Assay: MBHA screen of NCI mechanistic set library at 20 μM (percent inhibition, compound interference)
Type: biochemical
Conditions: compounds at 20 μM; for Inh. (%) (Inhibition): calculated from Equation 1
Method in brief: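 Molecular beacon-based DNA unwinding assay; compounds screened at 20 μM in triplicate, with DMSO-only negative and 500 nM dT20 positive controls. Fluorescence (ex 643/em 670 nm) was read before and 30 min after adding ATP to 1 mM. Percent inhibition came from the change relative to DMSO controls; interference from pre-ATP fluorescence versus DMSO controls.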

[1] = MBHA with DNA substrate, assay interference calculated with Equation 2
[2] = assay interference calculated with Equation 2 (fluorescence vs DMSO-only controls before ATP)

T1 sequence (Q9WMX2 1192-1657): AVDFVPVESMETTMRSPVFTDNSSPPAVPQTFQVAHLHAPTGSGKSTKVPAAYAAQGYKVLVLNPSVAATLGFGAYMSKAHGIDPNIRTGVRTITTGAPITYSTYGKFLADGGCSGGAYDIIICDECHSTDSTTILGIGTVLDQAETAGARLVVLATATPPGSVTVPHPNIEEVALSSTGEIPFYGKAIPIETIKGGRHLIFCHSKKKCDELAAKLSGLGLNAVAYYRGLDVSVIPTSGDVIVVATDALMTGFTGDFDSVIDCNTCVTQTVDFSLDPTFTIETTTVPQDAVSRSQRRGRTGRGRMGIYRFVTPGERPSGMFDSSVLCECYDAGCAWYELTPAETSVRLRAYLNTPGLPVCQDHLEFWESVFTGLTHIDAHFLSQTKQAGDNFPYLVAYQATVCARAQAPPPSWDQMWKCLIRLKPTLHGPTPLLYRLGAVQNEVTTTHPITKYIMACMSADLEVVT

Compound | Int.* (Ratio) (Interference) [1] | Inh. (%) (Inhibition) (MBHA with DNA substrate) | Inh. (%) (Inhibition) (MBHA with DNA substrate, 20 µM) | Inh. (%) (Inhibition) (MBHA with a DNA substrate) | Int.* (Ratio) (Interference) [2]
CC1=NN(C(=O)c2ccncc2)C(=O)C1N=Nc1ccc(F)cc1 (centres unmarked) [Compound 621094] | 0.98 | −2.8 | – | – | –
Cc1cc2c(cc1C)[n+](=O)c(C(=O)/C=C/c1ccccc1[N+](=O)[O-])c(C)n2[O-] [Compound 621486] | 1.16 | −10.4 | – | – | –
C[N+](C)(C)CC1CCCC1=O.[I-] (centres unmarked) [Compound 621889] | 1.08 | 12.2 | – | – | –
[Mo] [Compound 622116] | 0.97 | – | 3.5 | – | –
[Mo] [Compound 622124] | 1.11 | – | 54.2 | – | –
COC1=CC(=O)c2c(ccc3ncnc(N)c23)C1=O [Compound 622190] | 1.09 | 4.9 | – | – | –
COc1ccc(-n2/c(=N/C(=S)N(C)C)ss/c2=N\C(=S)N(C)C)cc1 [Compound 622586] | 0.93 | −14.9 | – | – | –
CN(C)C(=S)/N=c1\ss/c(=N\C(=S)N(C)C)n1-c1ccc2c(c1)OCO2 [Compound 622589] | – | – | – | −21.0 | 0.94
Br.CN(C)c1nc(=NCc2ccco2)ss1 [Compound 622608] | 1.01 | −2.1 | – | – | –
CCOC(=O)CCc1c(C)c2c(O)cc(O)cc2oc1=O [Compound 622616] | – | – | – | −6.5 | 0.95
O=[N+]([O-])c1cc(C(F)(F)F)cc([N+](=O)[O-])c1CCl [Compound 622627] | – | – | – | −26.2 | 1.09
NC(=O)c1c([N+](=O)[O-])cc(C(F)(F)F)cc1[N+](=O)[O-] [Compound 622640] | 1.10 | −13.4 | – | – | –
CCOC(=O)/N=C(\N)SCc1ccccc1.Cl [Compound 622684] | 1.04 | −1.3 | – | – | –
Cn1ncc2cc3c(Nc4ccc(Cl)cc4)cccc3nc21 [Compound 622732] | 0.92 | 27.4 | – | – | –
Cc1cc(Cl)ccc1N1C(=O)C(=O)C(c2nc3ccccc3o2)C(=O)C1=O [Compound 623051] | 0.92 | −10.9 | – | – | –
COc1ccc2nc(NC(=O)C(=O)CC(=O)c3ccc(Cl)cc3)sc2c1 [Compound 623059] | 0.94 | −8.7 | – | – | –
O=C(Nc1ccccc1-c1nn(C(=S)Nc2ccccc2)c(=S)n(C(=S)Nc2ccccc2)c1=O)C(F)(F)F [Compound 623093] | – | – | – | −4.2 | 0.87
CN(C)c1ccc(/C=c2/sc3nc(=O)c(-c4ccccc4NC(=O)C(F)(F)F)nn3c2=O)cc1 [Compound 623095] | 0.81 | −15.3 | – | – | –
CC(=O)OCc1c2ccccc2c(C)c2c1cc(F)c1ccccc12 [Compound 623135] | 0.87 | 36.6 | – | – | –
CCCCCCCCCCCCCCCCCCOCC(COCCOCC[N+]1(CCCCCC(=O)[O-])CCCC1)Oc1ncccn1 (centres unmarked) [Compound 623527] | – | – | – | −21.1 | 0.98
COC(=O)c1ccccc1OCc1cc(=O)oc2ccc(C)cc12 [Compound 623637] | – | – | – | −3.5 | 0.97
CCOC(=O)C1=C(O)CSC1=Nc1ccc(N=C2SCC(O)=C2C(=O)OCC)cc1 [Compound 623746] | – | – | – | −29.6 | 0.99
Cc1ccc(S(=O)(=O)SC/C=C/CSS(=O)(=O)c2ccc(C)cc2)cc1 [Compound 624158] | – | – | – | 9.2 | 0.90
O=S(=O)(O)SC/C=C/CSS(=O)(=O)O [Compound 624161] | 1.03 | −8.2 | – | – | –
Cl.NCCSSCc1ccccc1CSSCCN [Compound 624169] | – | – | – | 7.7 | 0.96

Compound | Int.* (Ratio) (Interference) [1] | Inh. (%) (Inhibition) (MBHA with DNA substrate) | Inh. (%) (Inhibition) (MBHA with DNA substrate, 20 µM) | Inh. (%) (Inhibition) (MBHA with a DNA substrate) | Int.* (Ratio) (Interference) [2]
CCCCCCCCCCNCCSSCc1ccc(Cl)cc1.Cl [Compound 624206] | 0.81 | 0.1 | – | – | –
CC12CC(Br)(Br)C(=O)C3C1CCCC32 [Compound 624358] | – | – | – | −4.4 | 1.05
Cc1[nH]c(=O)nc(N/N=C/c2ccc(Cl)cc2)c1C(=O)Nc1ccc(Cl)cc1 [Compound 624947] | 0.86 | −14.2 | – | – | –
C=CCOC1OC(CO[Si](C)(C)C(C)(C)C)C(OCc2ccccc2)C(OCc2ccccc2)C1OCc1ccccc1 (centres unmarked) [Compound 624953] | 0.90 | −7.5 | – | – | –
O=c1ncccn1C1OC(CO)C(O)C1F (centres unmarked) [Compound 625355] | 1.05 | −10.4 | – | – | –
Fc1cccc(Cl)c1C1SCc2nc3ccccc3n21 (centres unmarked) [Compound 625483] | – | – | – | 12.0 | 0.93
Fc1cccc(F)c1C1SCc2nc3ccccc3n21 (centres unmarked) [Compound 625487] | 1.01 | −0.1 | – | – | –
COc1ccc2cccc(C(=N)c3ccc(C)c4c3CCC4)c2c1 [Compound 625590] | 0.95 | 14.3 | – | – | –
Cc1ccccc1NC(=O)/C=N/O [Compound 625639] | 1.09 | −17.7 | – | – | –
Cc1cc([N+](=O)[O-])ccc1Nc1cccc(Cl)c1C [Compound 625641] | – | – | – | −37.8 | 1.20
C1CN(c2nnc(N3CCC3)nn2)C1 [Compound 625748] | 0.94 | −11.6 | – | – | –
COc1ccccc1Cc1nc(-c2ccccc2)nn(C2OC(COC(C)=O)C(OC(C)=O)C(OC(C)=O)C2OC(C)=O)c1=S (centres unmarked) [Compound 625873] | 1.02 | −16.6 | – | – | –
COC1OC(COCc2ccc(Cl)cc2)C(OCc2ccc(Cl)cc2)C1O (centres unmarked) [Compound 626120] | 0.97 | 15.1 | – | – | –
O=Cc1cc([N+](=O)[O-])no1 [Compound 626433] | 0.98 | −2.2 | – | – | –
CC(C)C(=O)OCN(C)c1nc(N(C)COC(=O)C(C)C)nc(N(C)COC(=O)C(C)C)n1 [Compound 626551] | – | – | – | −24.9 | 0.90
COc1ccc(C2C(C)C(=O)C(C)C(c3ccc(OC)cc3)N2N=O)cc1 (centres unmarked) [Compound 626734] | 1.02 | −18.3 | – | – | –
COc1ccc2c(c1)-c1nn(CCCN(C)C)c3ccc([N+](=O)[O-])c(c13)N2 [Compound 627168] | 0.53 | 64.3 | – | – | –
O=[N+]([O-])c1cc(C(F)(F)F)cc2n[se]nc12 [Compound 627371] | 0.92 | −10.1 | – | – | –
COc1cc2c3c(c1OC)-c1cc4c(cc1CC3(C#N)N(C(=O)c1ccccc1)CC2)OCO4 (centres unmarked) [Compound 627666] | – | – | – | −3.6 | 0.87
Cc1ccc(S(=O)(=O)c2ccccc2[N+](=O)[O-])cc1 [Compound 627708] | 1.03 | −11.4 | – | – | –
N#CC1(C#N)C2C=CC(c3coc4cccc2c34)C1(C#N)C#N (centres unmarked) [Compound 629301] | 0.91 | 0.8 | – | – | –
O=C1c2ccccc2C(=O)c2nc(-c3ccccc3)c(-c3ccccc3)nc21 [Compound 629713] | – | – | – | −20.3 | 0.90
O=C(NCCCCCCCCNC(=O)c1cccc2ccccc12)c1cccc2ccccc12 [Compound 629738] | 0.97 | 5.9 | – | – | –
CC[C@@]1(O)C(=O)OCc2c1cc1n(c2=O)Cc2cc3c(N)cccc3nc2-1 [Compound 629971] | – | – | – | −20.4 | 0.96

Source: patent US9464064B2, “HCV helicase inhibitors and methods of use thereof” (University of Kansas, priority 2011, dated 2016)
